This note sets out measurements from patent publication US7205403B2, “8-Heteroaryl xanthine adenosine A2B receptor antagonists” (King Pharmaceuticals Research and Development, Inc., priority 2002, dated 2007).

The term Ki denotes the dissociation constant of the complex between target and ligand, obtained from inhibition or displacement.

Experiment [1] addresses T1, human A2A adenosine receptor (Homo sapiens, UniProt P29274).
T1 construct: expressed in transfected cells; host or cells: CHO cells (membranes)
Put plainly: [3H]ZM241385 binding to human A2A receptors expressed in CHO cells. As to conditions: for Ki: read-out: Ki, [3H]ZM241385 binding to human A2A receptors expressed in CHO cells. How it is done:
(§1) The cells were grown adherently and maintained in Dulbecco's modified Eagle's medium with nutrient mixture F12 without nucleosides at 37° C. in 5% CO2/95% air. The cells were washed with phosphate-buffered saline and scraped off flasks in ice cold hypotonic buffer ([…] Tris HCl, 2 mM EDTA, pH 7.4). The cell suspension was homogenized with a Polytron and the homogenate was centrifuged for 30 minutes at 48,000 g. The resultant membrane pellet was re-suspended in 50 mM Tris HCl buffer at pH 7.4 for A1 adenosine receptors; in 50 mM Tris HCl 10 mM MgCl, at pH 7.4 for A2A adenosine receptors; in 50 mM Tris HCl, 10 mM MgCl2, 1 mM EDTA, at pH 7.4 for A3 adenosine receptors and were utilized for binding assays.
(§2) The filter bound radioactivity was counted on Top Count (efficiency 57%) with Micro-Scint 20.
(§3) The filter bound radioactivity was counted on a Top Count brand Microplate Scintillation Counter (efficiency 57%) with Micro-Scint 20. […] Inhibitory binding constant. […] Results and Discussion

In experiment [2] the target is T2, human A1 adenosine receptor (Homo sapiens, UniProt P30542).
T2 construct: expressed in transfected cells; host or cells: CHO cells (membranes)
T2 sequence (P30542 1-326): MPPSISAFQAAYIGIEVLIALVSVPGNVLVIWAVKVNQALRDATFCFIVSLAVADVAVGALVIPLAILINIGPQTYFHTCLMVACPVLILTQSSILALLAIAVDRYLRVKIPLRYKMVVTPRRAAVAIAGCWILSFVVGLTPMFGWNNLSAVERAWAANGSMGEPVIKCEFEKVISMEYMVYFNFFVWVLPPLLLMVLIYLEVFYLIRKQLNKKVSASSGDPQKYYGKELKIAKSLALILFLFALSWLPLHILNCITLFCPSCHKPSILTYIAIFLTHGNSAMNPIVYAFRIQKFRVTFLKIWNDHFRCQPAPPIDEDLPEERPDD
Kind of experiment: [3H]DPCPX binding to human A1 receptors expressed in CHO cells. As to the method: as §1
Displacement experiments were performed for 120 minutes at 25° C. in 200 μl of buffer containing 1 nM ^3H]-DPCPX 20 μl of diluted membranes (50 μg of protein/assay) and at least 6 to 8 different concentrations of examined compounds.
as §2, §3

The target of experiment [3] is T3, human A2B adenosine receptor (Homo sapiens, UniProt P29275).
T3 sequence (P29275 1-332): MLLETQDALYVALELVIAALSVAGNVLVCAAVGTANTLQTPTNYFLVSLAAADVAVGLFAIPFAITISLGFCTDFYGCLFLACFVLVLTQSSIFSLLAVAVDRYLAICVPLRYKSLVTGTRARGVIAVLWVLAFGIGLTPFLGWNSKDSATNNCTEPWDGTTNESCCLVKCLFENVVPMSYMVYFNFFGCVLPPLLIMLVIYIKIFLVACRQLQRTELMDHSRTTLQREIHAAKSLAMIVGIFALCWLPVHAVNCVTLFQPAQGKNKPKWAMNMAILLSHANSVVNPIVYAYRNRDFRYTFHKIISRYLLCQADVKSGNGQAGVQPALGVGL
Put plainly: [3H]DPCPX binding to human A2B receptors expressed in HEK293 cells. More on the design: host or cells: HEK 293 cells (membranes). As to conditions: geometric mean (95% confidence interval); >1000 = no appreciable binding; read-out: Ki, [3H]DPCPX binding to human A2B receptors expressed in HEK293 cells. How it is done:
HEK 293 cells transfected with the human recombinant A2B adenosine receptor were obtained from Receptor Biology, Inc. (Beltsville, Md. USA).
Binding of 1 [^3H]-DPCPX to HEK 293 cells transfected with the human recombinant A2B adenosine receptors was performed according to the method described by Varani et al., 2000. In particular, assays were carried out for 60 minutes at 25° C. in 100 μl of […] Tris HCl buffer, […] MgCl2, 1 mM EDTA, 0.1 mM benzamidine pH 7.4, 2 IU/ml adenosine deaminase containing 40 nM [^3H]-DPCPX, diluted membranes (20 μg of protein/assay) and at least 6–8 different concentration of tested compounds.
as §2, §3

For experiment [4], the target named is T4, human A3 adenosine receptor (Homo sapiens, UniProt P0DMS8).
T4 construct: expressed in transfected cells; host or cells: CHO cells (membranes)
T4 sequence (P0DMS8 1-318): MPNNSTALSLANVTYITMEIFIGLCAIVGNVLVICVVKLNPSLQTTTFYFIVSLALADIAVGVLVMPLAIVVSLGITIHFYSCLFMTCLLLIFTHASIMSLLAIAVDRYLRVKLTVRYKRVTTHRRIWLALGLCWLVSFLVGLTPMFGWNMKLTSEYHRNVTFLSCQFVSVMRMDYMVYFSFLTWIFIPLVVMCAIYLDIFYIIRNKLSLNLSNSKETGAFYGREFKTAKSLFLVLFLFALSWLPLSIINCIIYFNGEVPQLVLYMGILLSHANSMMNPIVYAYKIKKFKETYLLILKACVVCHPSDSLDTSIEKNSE
Kind of experiment: [3H]MRE3008F20 binding to human A3 receptors expressed in CHO cells. As to the method:
as §1
Binding of [^3H]-MRE3008-F20 to CHO cells transfected with the human recombinant A3 adenosine receptors was performed according to Varani et al., 2000. Competition experiments were carried out in duplicate in a final volume of 250 μl in test tubes containing 1 nM [^3H]-MRE3008-F20, 50 mM Tris HCl buffer, […] MgCl2, pH 7.4 and 100 μl of diluted membranes (50 μg of protein/assay) and at least 6–8 different concentrations of examined ligands for 120 minutes at 4° C.
as §2, §3

Setting [5] is: geometric mean (95% confidence interval), >1000 = no appreciable binding.

Each structure is given as a SMILES string. Entries after “also recorded” stand apart in the source; their conditions may differ. Where two headings read alike, the source gives them in different places. A value given as a limit tells only on which side of the number the result lay.

T1 sequence (P29274 whole entry): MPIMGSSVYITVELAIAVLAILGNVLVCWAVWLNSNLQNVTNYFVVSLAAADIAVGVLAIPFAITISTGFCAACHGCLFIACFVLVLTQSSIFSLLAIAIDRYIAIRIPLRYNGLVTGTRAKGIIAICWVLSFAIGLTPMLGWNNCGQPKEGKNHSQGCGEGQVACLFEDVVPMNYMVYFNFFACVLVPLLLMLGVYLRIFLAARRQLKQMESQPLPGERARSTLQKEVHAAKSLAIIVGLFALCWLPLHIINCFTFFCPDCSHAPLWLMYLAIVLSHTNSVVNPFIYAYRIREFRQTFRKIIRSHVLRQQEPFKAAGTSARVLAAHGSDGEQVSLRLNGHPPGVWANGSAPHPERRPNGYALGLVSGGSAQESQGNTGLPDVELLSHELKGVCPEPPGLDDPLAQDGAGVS

With `CCCn1c(=O)c2[nH]c(-c3cc(NC(=O)Cc4ccc(OCc5cccc(C(F)(F)F)c5)cc4)nn3C)nc2n(CCC)c1=O` [AS30, N-[5-(2,6-dioxo-1,3-dipropyl-2,3,6,9-tetrahydro-1H-purin-8-yl)-1-methyl-1H-pyrazol-3-yl]-2-(4-{[3-(trifluoromethyl)benzyl]oxy}phenyl)acetamide], the Ki in experiment [1] was greater than 1000 nM; in experiment [2] (setting [5]), 100 nM; in experiment [3], 90 nM; in experiment [4], greater than 1000 nM.
With `CCCn1c(=O)c2[nH]c(-c3cc(NC(=O)Cc4ccc(OC)cc4)nn3C)nc2n(CCC)c1=O` [AS23, 2-(4-methoxyphenyl)-N-[5-(2,6-dioxo-1,3-dipropyl-2,3,6,9-tetrahydro-1H-purin-8-yl)-1-methyl-1H-pyrazol-3-yl]acetamide], the Ki in experiment [1] is greater than 1000 nM; in experiment [2] (setting [5]) it was 850 nM; in experiment [3], 100 nM; in experiment [4], greater than 1000 nM.
Consider `CCCn1c(=O)c2[nH]c(-c3cc(OCC(=O)N4CCN(c5ccccc5)CC4)nn3C)nc2n(CCC)c1=O` [AS70, 1,3-di-n-propyl-8-{5-[2-oxo-2-(4-phenyl-piperazin-1-yl)-ethoxy]-2-methyl-2H-pyrazole-3-yl}-xanthine], for which the Ki in experiment [1] was greater than 1000 nM; in experiment [2] (setting [5]), 250 nM; in experiment [3], 15 nM; in experiment [4], greater than 1000 nM.
`CCCn1c(=O)c2[nH]c(-c3cc([N+](=O)[O-])cn3C)nc2n(CCC)c1=O` [AS7, 8-(1-methyl-4-nitro-1H-pyrrol-2-yl)-1,3-dipropyl-3,7-dihydro-1H-purine-2,6-dione]: the Ki in experiment [1] is greater than 1000 nM; in experiment [2], 122 nM; in experiment [3] it was 342 nM; in experiment [4], greater than 1000 nM.
Turning to `CCCn1c(=O)c2nc(-c3cc(OCC(=O)Nc4ccc(Br)cc4)n(C)n3)[nH]c2n(CCC)c1=O` [AS60, N-(4-bromophenyl)-2-{[3-(2,6-dioxo-1,3-dipropyl-2,3,6,9-tetrahydro-1H-purin-8-yl)-1-methyl-1H-pyrazol-5-yl]oxy}acetamide], the Ki in experiment [1] was greater than 1000 nM; in experiment [2] (setting [5]) it was 168 nM; in experiment [3] it was 93 nM; in experiment [4], greater than 1000 nM.
In the case of `CCCn1c(=O)c2[nH]c(-c3cc(OCC(=O)Nc4ccc(C)cc4)nn3C)nc2n(CCC)c1=O` [AS92], the inhibition constant (Ki) is greater than 1000 nM in experiment [1], 79 nM in experiment [2] (setting [5]), 19 nM in experiment [3] and greater than 1000 nM in experiment [4].
For the compound `CCCn1c(=O)c2[nH]c(-c3cc(NC(=O)Cc4ccc(OCc5ccc([N+](=O)[O-])cc5)cc4)nn3C)nc2n(CCC)c1=O` [AS31, N-[5-(2,6-dioxo-1,3-dipropyl-2,3,6,9-tetrahydro-1H-purin-8-yl)-1-methyl-1H-pyrazol-3-yl]-2-(4-{4-nitro-benzyloxy}phenyl)acetamide], the inhibitory constant (Ki) in experiment [1] is greater than 1000 nM; in experiment [2] (setting [5]) it was 163 nM; in experiment [3], 111 nM; in experiment [4], greater than 1000 nM.
As to `Cn1nc(N)cc1-c1nc2c([nH]1)c(=O)n(C)c(=O)n2C` [AS38, 8-(3-amino-1-methyl-1H-pyrazol-5-yl)-1,3-dimethyl-3,7-dihydro-1H-purine-2,6-dione], the Ki is greater than 1000 nM in experiment [1], greater than 1000 nM in experiment [2], 175 nM in experiment [3] and greater than 1000 nM in experiment [4].
For the compound `CCCn1c(=O)c2[nH]c(-c3cc(NC(=O)Cc4ccc(F)c(F)c4)nn3C)nc2n(CCC)c1=O` [AS43, N-[5-(2,6-dioxo-1,3-dipropyl-2,3,6,9-tetrahydro-1H-purin-8-yl)-1-methyl-1H-pyrazol-3-yl]-2-(3,4-difluorophenyl)acetamide], the Ki in experiment [1] was greater than 1000 nM; in experiment [2] (setting [5]), 1900 nM; in experiment [3], 130 nM; in experiment [4] it was greater than 1000 nM.
In the case of `CC(C)Cn1c(=O)c2[nH]c(-c3cc(OCC(=O)Nc4ccc(Br)cc4)n(C)n3)nc2n(CC(C)C)c1=O` [AS63, 2-{[3-(1,3-diisobutyl-2,6-dioxo-2,3,6,9-tetrahydro-1H-purin-8-yl)-1-methyl-1H-pyrazol-5-yl]oxy}-N-(4-bromophenyl)acetamide], the Ki in experiment [1] was greater than 1000 nM; in experiment [2] (setting [5]), 49 nM; in experiment [3], 66 nM; in experiment [4], greater than 1000 nM.
Consider `CCCn1c(=O)c2[nH]c(-c3cc(NC(=O)Cc4ccc(OCc5ccccc5)c(OC)c4)nn3C)nc2n(CCC)c1=O` [AS56, 2-[4-(benzyloxy)-3-methoxyphenyl]-N-[5-(2,6-dioxo-1,3-dipropyl-2,3,6,9-tetrahydro-1H-purin-8-yl)-1-methyl-1H-pyrazol-3-yl]acetamide], for which the Ki is 2430 nM in experiment [1], 1790 nM in experiment [2], 100 nM in experiment [3] and greater than 1000 nM in experiment [4].
Turning to `CC(C)Cn1c(=O)c2[nH]c(-c3cc(OCC(=O)Nc4ccc(Br)cc4)nn3C)nc2n(CC(C)C)c1=O` [AS67, 2-{[5-(1,3-diisobutyl-2,6-dioxo-2,3,6,9-tetrahydro-1H-purin-8-yl)-1-methyl-1H-pyrazol-3-yl]oxy}-N-(4-bromophenyl)acetamide], the Ki in experiment [1] was greater than 1000 nM; in experiment [2] (setting [5]), 2430 nM; in experiment [3] it was 132 nM; in experiment [4], greater than 1000 nM.
For the compound `CCCn1c(=O)c2[nH]c(-c3cc(NC(=O)Cc4ccc(O)cc4)nn3C)nc2n(CCC)c1=O` [AS17, 2-[4-hydroxyphenyl]-N-[5-(2,6-dioxo-1,3-dipropyl-2,3,6,9-tetrahydro-1H-purin-8-yl)-1-methyl-1H-pyrazol-3-yl]acetamide], the “Ki, [3H]ZM241385 binding to human A2A receptors expressed in CHO cells” value in experiment [1] (setting [5]) is listed as “no appreciable affinity; also recorded: without significant binding”. Further, the Ki in experiment [1] was greater than 1000 nM; in experiment [3], 103 nM; in experiment [4], greater than 1000 nM. Besides, the “Ki, [3H]DPCPX binding to human A1 receptors expressed in CHO cells” value in experiment [2] (setting [5]) is “no appreciable affinity; also recorded: without significant binding”. In addition, the “Ki, [3H]MRE3008F20 binding to human A3 receptors expressed in CHO cells” value in experiment [4] (setting [5]) is listed as “no appreciable affinity; also recorded: without significant binding”.
